Reference: patent US6756376B1, “Tricyclic azaindolizine derivatives having an sPLA2-inhibitory activities” (Shionogi & Co., Ltd., priority 1999, dated 2004)

What was measured:
human type I sPLA2 = human type I sPLA2 (Homo sapiens, UniProt P04054); assay: Inhibition test of human secretory phospholipase A2, chromogenic assay, Type I enzyme; format: biochemical; settings: human type I enzyme 90 ng/well, absorbance change 30 min, OD 405 nm
Text: (§1) In order to identify and evaluate an inhibitor of recombinant human secretory phospholipase A2, the following chromogenic assay is utilized. The assay herein has been applied for high volume screening wherein 96 well microtiterplate is used. A general explanation for such assay is described in “Analysis of Human Synovial Fluid Phospholipase A2 on Short Chain Phosphatidylcholine-Mixed Micelles: Development of a Spectrophotometric Assay Suitable for a Micortiterplate Reader” (Analytical Biochemistry, 204, pp 190-197, 1992 by Laure. J. Reynolds. Lori L. Hughes and Edward A. Dennis: the disclosure of which is incorporated herein for reference.
Type I enzyme: sPLA2 solution (330 ng/μl) (described in A. Kanda et. al., Biochimica et Biophysica Acta. 1171 (1992) 1-10) is dissolved in the assay (enzyme solution 27 μl is diluted with 1973 μl of the reaction buffer).
(§2) 1) 0.106 ml of the substrate solution is put in a centrifugal tube, and nitrogen gas is jetted to remove the solvent. 0.54 ml of Triton-X 100 is added thereto, the mixture is stirred, thereafter it is sonified in a bath type sonification to dissolve. To the resulting product are added 17.8 ml of the reaction buffer and 0.46 ml of DTNB, and 0.18 ml each of the admixture is poured to wells of the 96 well microtiterplate.
(§3) 2) 10 μl of a test compound (or solvent blank) are added in accordance with alignment of plates which has been previously set.
(§4) 3) Incubation is effected at 40° C. for 15 minutes.
(§5) 4) 90 ng/well in case of human type I enzyme, 50 ng/well in case of human type II enzyme, 40 μl/well in case of human type V enzyme, 15 μl/well in case of human type X enzyme were reacted.
(§6) 5) Changes in absorbancy for 30 minutes for humane type I, type II, and type X enzyme and for 45 min for human type V enzyme, are measured by a plate reader, and inhibition activity was calculated (OD: 405 nm).
(§7) 6) IC50 was determined by plotting log concentration with respect to inhibition values within 10% to 90% inhibiting range.

human type V sPLA2 = biological target: T1, human type V sPLA2 (Homo sapiens, UniProt P39877); assay: Inhibition test of human secretory phospholipase A2, chromogenic assay, Type V enzyme; format: biochemical; settings: human type V enzyme (CHO supernatant) 40 μl/well, absorbance change 45 min, OD 405 nm
T1 construct: made in house; unpurified culture supernatant used
T1 sequence (P39877 21-138): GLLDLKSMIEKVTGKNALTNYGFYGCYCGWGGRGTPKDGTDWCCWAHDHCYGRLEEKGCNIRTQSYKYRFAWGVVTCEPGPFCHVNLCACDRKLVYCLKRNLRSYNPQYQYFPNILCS
Text: (§8) In order to identify and evaluate an inhibitor of recombinant human secretory phospholipase A2, the following chromogenic assay is utilized. The assay herein has been applied for high volume screening wherein 96 well microtiterplate is used. A general explanation for such assay is described in “Analysis of Human Synovial Fluid Phospholipase A2 on Short Chain Phosphatidylcholine-Mixed Micelles: Development of a Spectrophotometric Assay Suitable for a Micortiterplate Reader” (Analytical Biochemistry, 204, pp 190-197, 1992 by Laure. J. Reynolds. Lori L. Hughes and Edward A. Dennis: the disclosure of which is incorporated herein for reference. Type V and Type X enzymes: cDNA sequences encoding human type V and Type X sPLA2 (Chen et., al., J. Biol. Chem., 1994. 269, 2365-2368 and Cupillard et., al., J. Biol. Chem., 1997, 272, 15745-15762) were inserted into downstream of promoter of pSVL SV40 Late Promoter Expression Vector (Amersham Pharmacia Biotech K. K.), mammalian cell expression vector, forwardly. The recombinant expression vectors were transfected into CHO host cells by LipofectAMINE regent (Gibco BRL.) according to the attached manual and the cells expressed each of human type V and type X sPLA2 stably. After each expressing cells were cultured in σ-MEM medium including 10% fetal serum albumin for 3 days, the cells supernatant were collected and measured enzymatic activity. 1) 0.106 ml of the substrate solution is put in a centrifugal tube, and nitrogen gas is jetted to remove the solvent. 0.54 ml of Triton-X 100 is added thereto, the mixture is stirred, thereafter it is sonified in a bath type sonification to dissolve. To the resulting product are added 17.8 ml of the reaction buffer and 0.46 ml of DTNB, and 0.18 ml each of the admixture is poured to wells of the 96 well microtiterplate. 2) 10 μl of a test compound (or solvent blank) are added in accordance with alignment of plates which has been previously set. 3) Incubation is effected at 40° C. for 15 minutes. 4) 90 ng/well in case of human type I enzyme, 50 ng/well in case of human type II enzyme, 40 μl/well in case of human type V enzyme, 15 μl/well in case of human type X enzyme were reacted. 5) Changes in absorbancy for 30 minutes for humane type I, type II, and type X enzyme and for 45 min for human type V enzyme, are measured by a plate reader, and inhibition activity was calculated (OD: 405 nm). 6) IC50 was determined by plotting log concentration with respect to inhibition values within 10% to 90% inhibiting range.

human type II sPLA2 = biological target: T2, human type II sPLA2 (Homo sapiens, UniProt P14555); assay: Inhibition test of human secretory phospholipase A2, chromogenic assay, Type II enzyme; format: biochemical; settings: human type II enzyme 50 ng/well, absorbance change 30 min, OD 405 nm
T2 sequence (P14555 21-144): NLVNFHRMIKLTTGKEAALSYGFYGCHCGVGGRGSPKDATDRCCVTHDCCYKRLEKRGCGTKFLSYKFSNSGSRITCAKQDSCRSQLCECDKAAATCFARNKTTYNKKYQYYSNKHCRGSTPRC
Text: as §1
Type II enzyme: 1 mg of sPLA2 is dissolved in 1 ml of an enzyme buffer. Thereafter, the solution is maintained at 4° C. In the assay, 5 >l of the solution is diluted with 1995 μl of the reaction buffer to be used.
as §2, §3, §4, §5, §6, §7

human type X sPLA2 = biological target: T3, human type X sPLA2 (Homo sapiens, UniProt O15496); assay: Inhibition test of human secretory phospholipase A2, chromogenic assay, Type X enzyme; format: biochemical; settings: human type X enzyme (CHO supernatant) 15 μl/well, absorbance change 30 min, OD 405 nm
T3 construct: made in house; unpurified culture supernatant used
T3 sequence (O15496 43-165): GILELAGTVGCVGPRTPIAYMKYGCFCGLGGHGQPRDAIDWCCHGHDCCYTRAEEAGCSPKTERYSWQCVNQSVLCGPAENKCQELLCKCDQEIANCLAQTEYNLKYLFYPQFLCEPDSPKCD
Text: as §8

human type I sPLA2, sequence (P04054 23-148): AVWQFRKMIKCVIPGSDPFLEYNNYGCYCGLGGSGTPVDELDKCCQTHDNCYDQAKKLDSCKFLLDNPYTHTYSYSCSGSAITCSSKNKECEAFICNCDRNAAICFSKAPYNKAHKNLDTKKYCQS

Cc1cc(OCC(=O)O)c2c3c(c(Cc4ccccc4)n2n1)CCC=C3C(N)=O [Compound I-1]
IC50 (human type I sPLA2): 170 nM | melting point: 256 to 258 °C (dec.) | IC50 (human type V sPLA2): 2 nM | IC50 (human type II sPLA2): 7 nM | IC50 (human type X sPLA2): 4 nM

Cc1cc(OC(C)C(=O)O)c2c3c(c(Cc4ccccc4)n2n1)CCC=C3C(N)=O (stereo not drawn) [Compound I-2]
IC50 (human type I sPLA2): 79 nM | IC50 (human type V sPLA2): 3 nM | IC50 (human type II sPLA2): 15 nM | IC50 (human type X sPLA2): 4 nM

Cc1ccc(Cc2c3c(c4c(OCC(=O)O)cc(C)nn24)C(C(N)=O)=CCC3)cc1 [Compound I-3]
IC50 (human type I sPLA2): 460 nM | IC50 (human type V sPLA2): 2 nM | IC50 (human type II sPLA2): 11 nM | IC50 (human type X sPLA2): 10 nM

Cc1ccc(Cc2c3c(c4c(OC(C)C(=O)O)cc(C)nn24)C(C(N)=O)=CCC3)cc1 (stereo not drawn) [Compound I-4]
IC50 (human type I sPLA2): 139 nM | IC50 (human type V sPLA2): 2 nM | IC50 (human type II sPLA2): 21 nM | IC50 (human type X sPLA2): 7 nM

Cc1cc(OCC(=O)O)c2c3c(c(Cc4ccc(Cl)cc4)n2n1)CCC=C3C(N)=O [Compound I-5]
IC50 (human type I sPLA2): 147 nM | IC50 (human type V sPLA2): 1 nM | IC50 (human type II sPLA2): 8 nM | IC50 (human type X sPLA2): 6 nM

Cc1cc(OC(C)C(=O)O)c2c3c(c(Cc4ccc(Cl)cc4)n2n1)CCC=C3C(N)=O (stereo not drawn) [Compound I-6]
IC50 (human type I sPLA2): 86 nM | IC50 (human type V sPLA2): 1 nM | IC50 (human type II sPLA2): 17 nM | IC50 (human type X sPLA2): 5 nM

COc1cccc(Cc2c3c(c4c(OCC(=O)O)cc(C)nn24)C(C(N)=O)=CCC3)c1 [Compound I-7]
IC50 (human type I sPLA2): 215 nM | IC50 (human type V sPLA2): 2 nM | IC50 (human type II sPLA2): 10 nM | IC50 (human type X sPLA2): 16 nM

COc1cccc(Cc2c3c(c4c(OC(C)C(=O)O)cc(C)nn24)C(C(N)=O)=CCC3)c1 (stereo not drawn) [Compound I-8]
IC50 (human type I sPLA2): 76 nM | IC50 (human type V sPLA2): 2 nM | IC50 (human type II sPLA2): 23 nM | IC50 (human type X sPLA2): 12 nM

NC(=O)C1=CCCc2c1c1c(OCC(=O)O)cc(-c3ccccc3)nn1c2Cc1ccccc1 [Compound I-9]
IC50 (human type I sPLA2): 51 nM | IC50 (human type V sPLA2): 0.2 nM | IC50 (human type II sPLA2): 8 nM | IC50 (human type X sPLA2): 1 nM

COc1cccc(Cc2c3c(c4c(OCC(=O)O)cc(-c5ccccc5)nn24)C(C(N)=O)=CCC3)c1 [Compound I-10]
IC50 (human type I sPLA2): 49 nM | IC50 (human type V sPLA2): 0.2 nM | IC50 (human type II sPLA2): 6 nM | IC50 (human type X sPLA2): 2 nM

Cc1cn2c(Cc3ccccc3)c3c(c2c(OCC(=O)O)n1)C(C(N)=O)=CCC3 [Compound I-11]
IC50 (human type I sPLA2): 234 nM | IC50 (human type V sPLA2): 1 nM | IC50 (human type II sPLA2): 9 nM | IC50 (human type X sPLA2): 6 nM

NC(=O)C1=CCCc2c1c1c(OCC(=O)O)nccn1c2Cc1ccccc1 [Compound I-12]
IC50 (human type I sPLA2): 86 nM | IC50 (human type V sPLA2): 2 nM | IC50 (human type II sPLA2): 8 nM | IC50 (human type X sPLA2): 4 nM

Cc1cn2c(Cc3ccccc3)c3c(c2c(OC(C)C(=O)O)n1)C(C(N)=O)=CCC3 (stereo not drawn) [Compound I-13]
IC50 (human type I sPLA2): 93 nM | IC50 (human type V sPLA2): 4 nM | IC50 (human type II sPLA2): 19 nM | IC50 (human type X sPLA2): 7 nM

Cc1cn2c(CC3CCCCC3)c3c(c2c(OC(C)C(=O)O)n1)C(C(N)=O)=CCC3 (stereo not drawn) [Compound I-14]
IC50 (human type I sPLA2): 57 nM | IC50 (human type V sPLA2): 1 nM | IC50 (human type II sPLA2): 14 nM | IC50 (human type X sPLA2): 1 nM
